Laboratory results reported in patent publication US11185517B2, “Pharmaceutical composition for treatment or remission of chronic myelogenous leukemia” (Delta-Fly Pharma, Inc., priority 2016, dated 2021).

Tested on: patient with chronic myelogenous leukemia
Experiment: Administration of Tasigna (nilotinib) to the patient with chronic myelogenous leukemia
Type: in vivo, human
Details: CML patient
Method: To a patient with chronic myelogenous leukemia, Tasigna (registered trademark) (nilotinib) was administered from Jan. 9, 2014.
The initially administered Tasigna (registered trademark) (nilotinib) had been developed as a therapeutic agent for the transitional stage of chronic myelogenous leukemia from the chronic stage to the acute stage.

## Cc1cn(-c2cc(NC(=O)c3ccc(C)c(Nc4nccc(-c5cccnc5)n4)c3)cc(C(F)(F)F)c2)cn1 [Tasigna, nilotinib]
Considered at the acute stage
  therapeutic effect: no therapeutic effect
Administration stopped after 5 days
  adverse effects: strong adverse effects were observed
